In US10588978B2, “Pharmaceutical composition containing imidazoline derivative” (priority 2016, dated 2020):
Where two headings read alike, the source gives them in different places.

Tests used:
AIPC [1] = details: mouse; cited from earlier work
tumor cell growth = details: cited from earlier work
AIPC [2] = details: human; cited from earlier work
[3] = Solubility of the compound in compositions with conventional auxiliaries; assay type: physicochemical
[4] = mice; relative to MDV-3100; cited from earlier work
[5] = tested on: five major subtypes of CYP450; details: all five subtypes; read-out: inhibition half lives on five major subtypes of CYP450; cited from earlier work
[6] = same dose, same solvent; cited from earlier work
[7] = same dose, same solvent; cited from earlier work; remark: listed apart in the source
[8] = Studies on stability of the compound; assay type: physicochemical
AR [9] = molecular target: T1, AR (Homo sapiens, UniProt P10275); details: cited from earlier work
T1 sequence (P10275 1-920): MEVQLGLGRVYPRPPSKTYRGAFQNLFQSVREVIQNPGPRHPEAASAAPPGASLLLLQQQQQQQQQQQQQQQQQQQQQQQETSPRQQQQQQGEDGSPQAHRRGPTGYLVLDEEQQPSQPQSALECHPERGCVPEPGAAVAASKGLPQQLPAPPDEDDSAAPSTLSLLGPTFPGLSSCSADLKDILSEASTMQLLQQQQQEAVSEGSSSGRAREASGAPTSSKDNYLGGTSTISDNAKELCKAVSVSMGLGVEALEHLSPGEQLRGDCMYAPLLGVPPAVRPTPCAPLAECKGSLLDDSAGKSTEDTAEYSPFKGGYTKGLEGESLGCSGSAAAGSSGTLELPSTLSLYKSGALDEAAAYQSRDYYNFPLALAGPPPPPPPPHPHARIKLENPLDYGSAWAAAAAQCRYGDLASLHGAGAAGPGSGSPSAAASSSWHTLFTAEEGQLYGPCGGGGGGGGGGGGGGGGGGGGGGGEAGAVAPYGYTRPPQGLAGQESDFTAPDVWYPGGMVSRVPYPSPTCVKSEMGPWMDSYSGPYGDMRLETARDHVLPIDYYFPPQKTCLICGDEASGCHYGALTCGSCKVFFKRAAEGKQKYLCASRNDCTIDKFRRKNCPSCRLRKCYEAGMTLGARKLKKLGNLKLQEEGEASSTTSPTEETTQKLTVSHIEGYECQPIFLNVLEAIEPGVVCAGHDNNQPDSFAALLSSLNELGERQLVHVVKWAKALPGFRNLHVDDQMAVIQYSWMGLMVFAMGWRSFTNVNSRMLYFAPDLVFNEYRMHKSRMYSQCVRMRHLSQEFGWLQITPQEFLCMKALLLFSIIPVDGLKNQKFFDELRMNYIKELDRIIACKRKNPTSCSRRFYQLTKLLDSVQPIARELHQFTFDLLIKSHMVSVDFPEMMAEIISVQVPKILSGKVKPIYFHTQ

AR [10] = molecular target: T1, AR; details: cited from earlier work; remark: listed apart in the source

SMILES | inhibition of growth of AIPC (AIPC [1]) | effect of promoting tumor cell growth (tumor cell growth) | inhibition of growth of AIPC (AIPC [2]) | solubility in compositions prepared with conventional auxiliaries [3] | ratio of the drug concentration in brain tissue to the drug concentration in plasma [4] | IC50 [5] [µM] | in vivo exposure in rats relative to MDV-3100 [6] | in vivo exposure in dogs relative to MDV-3100 [7] | stability of the compound [8] | AR agonist activity (AR [9]; at 3 μM) | AR agonist activity (AR [9]; at 10 μM) | activity in vitro relative to MDV-3100 (AR [10])
CNC(=O)c1ccc(N2C(=S)N(c3ccc(C#N)c(C(F)(F)F)c3)C(=O)C2(C)C)cc1F [MDV-3100] | can inhibit the growth of AIPC | no effect of promoting tumor cell growth | can inhibit the growth of AIPC |  |  |  |  |  |  |  |  | 
CC1(C)C(=O)N(c2ccc(C#N)c(C(F)(F)F)c2)C(=S)N1c1ccc(OC[C@@H](O)CO)cc1 [compound of formula (I), (S)-4-(3-(4-(2,3-dihydroxypropoxy)phenyl)-4,4-dimethyl-5-carbonyl-2-thioimidazolin-1-yl)-2-(trifluoromethyl)benzonitrile] |  |  |  | poorly soluble | much lower than that of MDV-3100 | > 50 | comparable to that of MDV-3100 | more than six times that of MDV-3100 | poor stability | no AR agonist activity | no AR agonist activity | slightly better than that of MDV-3100
